Data from US10870647B2, “Imidazopyridine derivative, method for preparing same, and pharmaceutical composition containing same as active ingredient for preventing or treating cancer” (DAEGU-GYEONGBUK MEDICAL INNOVATION FOUNDATION, priority 2016, dated 2020).

Assays:
Assay in all cases: Kinase selectivity, scanMAX Kinase assay panel (DiscoverX), % control at 1 uM
Type in all cases: binding
[1] = biological target: T1, scanMAX Kinase assay panel (Homo sapiens, UniProt P07949, V804L); settings: RET (V804L); 1 uM; read-out: Percent Control (%)
T1 construct: purchased DiscoverX
Outline: (§1)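 Each kinase was first exposed to the test compound at 1 uM in DMSO. Signal was then normalised to positive and negative controls to give % control. Finally, any enzyme showing <35% control was judged inhibited.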

[2] = biological target: T2, scanMAX Kinase assay panel (Homo sapiens, UniProt P10721, A829P); settings: KIT (A829P); 1 uM; read-out: Percent Control (%)
T2 construct: purchased DiscoverX
Outline: as §1

[3] = biological target: T3, scanMAX Kinase assay panel (Homo sapiens, UniProt P27448); settings: MARK3; 1 uM; read-out: Percent Control (%)
T3 construct: purchased DiscoverX
Outline: as §1

[4] = biological target: T4, scanMAX Kinase assay panel (Homo sapiens, UniProt P41743); settings: PRKCI; 1 uM; read-out: Percent Control (%)
T4 construct: purchased DiscoverX
T4 sequence (P41743 1-596): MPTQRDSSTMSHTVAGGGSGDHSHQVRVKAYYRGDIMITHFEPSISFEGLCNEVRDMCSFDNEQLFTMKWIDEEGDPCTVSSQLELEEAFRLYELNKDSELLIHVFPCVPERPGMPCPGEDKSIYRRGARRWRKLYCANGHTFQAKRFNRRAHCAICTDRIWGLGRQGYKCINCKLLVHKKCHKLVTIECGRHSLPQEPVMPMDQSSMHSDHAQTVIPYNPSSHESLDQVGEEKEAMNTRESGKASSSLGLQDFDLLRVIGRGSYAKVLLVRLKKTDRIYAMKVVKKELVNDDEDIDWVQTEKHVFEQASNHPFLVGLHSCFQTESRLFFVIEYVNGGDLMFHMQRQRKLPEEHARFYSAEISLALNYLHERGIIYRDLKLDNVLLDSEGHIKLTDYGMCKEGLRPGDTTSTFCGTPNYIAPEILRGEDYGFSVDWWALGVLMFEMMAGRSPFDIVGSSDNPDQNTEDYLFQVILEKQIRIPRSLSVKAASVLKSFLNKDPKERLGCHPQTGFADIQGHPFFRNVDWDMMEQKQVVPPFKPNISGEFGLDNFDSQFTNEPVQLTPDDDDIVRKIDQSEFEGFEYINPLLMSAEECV
Outline: as §1

[5] = biological target: T5, scanMAX Kinase assay panel (Homo sapiens, UniProt P45984); settings: JNK2; 1 uM; read-out: Percent Control (%)
T5 construct: purchased DiscoverX
Outline: as §1

[6] = biological target: T6, scanMAX Kinase assay panel (Homo sapiens, UniProt Q16659); settings: ERK3; 1 uM; read-out: Percent Control (%)
T6 construct: purchased DiscoverX
Outline: as §1

[7] = biological target: T7, scanMAX Kinase assay panel (Homo sapiens, UniProt Q59H18); settings: TNNI3K; 1 uM; read-out: Percent Control (%)
T7 construct: purchased DiscoverX
T7 sequence (Q59H18 1-835): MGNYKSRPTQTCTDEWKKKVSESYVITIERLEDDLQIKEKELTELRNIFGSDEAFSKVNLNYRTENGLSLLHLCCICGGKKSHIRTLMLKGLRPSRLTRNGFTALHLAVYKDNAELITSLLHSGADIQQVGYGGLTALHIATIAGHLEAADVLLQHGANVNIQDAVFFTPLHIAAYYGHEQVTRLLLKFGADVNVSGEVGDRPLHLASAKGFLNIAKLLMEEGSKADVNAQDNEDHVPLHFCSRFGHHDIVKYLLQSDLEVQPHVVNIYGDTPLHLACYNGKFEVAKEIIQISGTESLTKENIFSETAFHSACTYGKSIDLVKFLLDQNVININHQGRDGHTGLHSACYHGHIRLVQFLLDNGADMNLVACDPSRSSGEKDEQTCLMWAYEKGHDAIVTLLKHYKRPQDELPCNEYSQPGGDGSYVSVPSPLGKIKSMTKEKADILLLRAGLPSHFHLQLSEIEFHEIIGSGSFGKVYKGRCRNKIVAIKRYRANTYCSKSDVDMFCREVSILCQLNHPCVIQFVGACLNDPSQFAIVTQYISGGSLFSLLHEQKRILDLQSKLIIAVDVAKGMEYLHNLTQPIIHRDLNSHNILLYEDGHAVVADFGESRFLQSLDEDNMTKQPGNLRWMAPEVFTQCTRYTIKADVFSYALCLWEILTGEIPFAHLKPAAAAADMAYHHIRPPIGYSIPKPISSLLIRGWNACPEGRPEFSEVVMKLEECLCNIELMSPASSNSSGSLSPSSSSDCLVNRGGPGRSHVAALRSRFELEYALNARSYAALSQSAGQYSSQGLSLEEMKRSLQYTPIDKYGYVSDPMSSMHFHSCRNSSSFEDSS
Outline: as §1

[8] = biological target: T8, scanMAX Kinase assay panel (Homo sapiens, UniProt Q96RR4); settings: CAMKK2; 1 uM; read-out: Percent Control (%)
T8 construct: purchased DiscoverX
Outline: as §1

[9] = biological target: T9, scanMAX Kinase assay panel (Homo sapiens, UniProt Q9BYP7); settings: WNK3; 1 uM; read-out: Percent Control (%)
T9 construct: purchased DiscoverX
Outline: as §1

T1 sequence (P07949 29-1114 V804L): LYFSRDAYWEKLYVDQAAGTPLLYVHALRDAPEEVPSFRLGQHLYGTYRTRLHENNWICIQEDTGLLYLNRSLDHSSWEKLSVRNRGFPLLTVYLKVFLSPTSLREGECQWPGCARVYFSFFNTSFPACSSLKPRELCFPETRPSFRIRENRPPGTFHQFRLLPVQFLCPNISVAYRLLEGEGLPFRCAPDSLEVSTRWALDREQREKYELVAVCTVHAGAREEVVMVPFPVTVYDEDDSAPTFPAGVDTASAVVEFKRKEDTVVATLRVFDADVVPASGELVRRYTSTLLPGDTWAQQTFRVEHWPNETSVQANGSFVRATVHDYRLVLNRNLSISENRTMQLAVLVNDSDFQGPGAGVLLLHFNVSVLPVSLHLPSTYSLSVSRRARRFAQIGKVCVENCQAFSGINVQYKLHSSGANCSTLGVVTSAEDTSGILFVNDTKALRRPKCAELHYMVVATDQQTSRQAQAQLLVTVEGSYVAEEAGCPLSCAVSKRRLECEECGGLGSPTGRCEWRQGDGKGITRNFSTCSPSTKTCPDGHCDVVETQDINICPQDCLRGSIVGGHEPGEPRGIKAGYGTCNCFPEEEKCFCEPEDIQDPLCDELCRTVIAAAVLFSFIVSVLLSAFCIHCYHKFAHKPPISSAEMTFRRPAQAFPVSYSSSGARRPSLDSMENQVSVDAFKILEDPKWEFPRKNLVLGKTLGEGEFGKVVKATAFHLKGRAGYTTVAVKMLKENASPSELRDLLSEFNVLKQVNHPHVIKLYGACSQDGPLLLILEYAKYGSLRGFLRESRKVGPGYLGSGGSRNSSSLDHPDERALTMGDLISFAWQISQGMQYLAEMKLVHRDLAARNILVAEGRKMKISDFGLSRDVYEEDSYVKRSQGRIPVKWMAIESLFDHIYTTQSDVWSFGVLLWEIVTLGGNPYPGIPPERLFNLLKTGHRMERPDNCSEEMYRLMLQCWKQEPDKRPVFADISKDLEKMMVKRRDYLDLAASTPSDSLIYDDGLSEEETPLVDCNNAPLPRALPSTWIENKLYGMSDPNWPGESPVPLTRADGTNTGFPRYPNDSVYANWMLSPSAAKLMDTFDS
T8 sequence (Q96RR4 whole entry): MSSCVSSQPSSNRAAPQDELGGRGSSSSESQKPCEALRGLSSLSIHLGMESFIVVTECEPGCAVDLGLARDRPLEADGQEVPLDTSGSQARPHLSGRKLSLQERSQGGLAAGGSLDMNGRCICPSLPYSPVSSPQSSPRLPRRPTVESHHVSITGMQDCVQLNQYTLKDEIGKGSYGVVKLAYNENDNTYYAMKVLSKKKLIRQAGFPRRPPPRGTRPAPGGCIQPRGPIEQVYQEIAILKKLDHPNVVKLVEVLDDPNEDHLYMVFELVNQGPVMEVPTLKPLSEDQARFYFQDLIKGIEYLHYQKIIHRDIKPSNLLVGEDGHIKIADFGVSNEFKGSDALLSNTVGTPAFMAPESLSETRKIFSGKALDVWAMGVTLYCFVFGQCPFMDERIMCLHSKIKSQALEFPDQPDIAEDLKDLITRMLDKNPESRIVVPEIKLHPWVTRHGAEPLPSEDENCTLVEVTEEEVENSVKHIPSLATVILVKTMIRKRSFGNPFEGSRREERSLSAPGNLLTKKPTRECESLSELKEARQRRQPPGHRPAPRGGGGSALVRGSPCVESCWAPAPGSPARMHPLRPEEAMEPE
T3 sequence (P27448 whole entry): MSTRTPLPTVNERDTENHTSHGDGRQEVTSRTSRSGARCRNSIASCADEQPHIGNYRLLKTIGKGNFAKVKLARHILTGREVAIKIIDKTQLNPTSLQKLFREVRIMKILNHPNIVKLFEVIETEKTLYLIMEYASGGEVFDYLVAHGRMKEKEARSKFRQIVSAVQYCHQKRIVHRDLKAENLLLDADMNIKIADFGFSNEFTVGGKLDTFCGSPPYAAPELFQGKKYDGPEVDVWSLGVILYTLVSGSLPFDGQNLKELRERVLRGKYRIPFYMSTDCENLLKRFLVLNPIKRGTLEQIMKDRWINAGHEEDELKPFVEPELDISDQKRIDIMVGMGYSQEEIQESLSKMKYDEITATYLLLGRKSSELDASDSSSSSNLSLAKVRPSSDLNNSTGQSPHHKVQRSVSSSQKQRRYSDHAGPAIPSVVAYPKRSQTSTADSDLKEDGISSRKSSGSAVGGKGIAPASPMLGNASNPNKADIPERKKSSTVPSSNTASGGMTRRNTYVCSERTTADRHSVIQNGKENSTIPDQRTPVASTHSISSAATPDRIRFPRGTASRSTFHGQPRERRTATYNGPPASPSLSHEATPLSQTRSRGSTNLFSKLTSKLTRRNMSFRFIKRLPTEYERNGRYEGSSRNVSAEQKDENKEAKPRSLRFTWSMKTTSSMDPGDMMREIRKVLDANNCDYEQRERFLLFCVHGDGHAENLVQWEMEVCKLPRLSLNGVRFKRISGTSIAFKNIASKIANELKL
T2 sequence (P10721 26-976 A829P): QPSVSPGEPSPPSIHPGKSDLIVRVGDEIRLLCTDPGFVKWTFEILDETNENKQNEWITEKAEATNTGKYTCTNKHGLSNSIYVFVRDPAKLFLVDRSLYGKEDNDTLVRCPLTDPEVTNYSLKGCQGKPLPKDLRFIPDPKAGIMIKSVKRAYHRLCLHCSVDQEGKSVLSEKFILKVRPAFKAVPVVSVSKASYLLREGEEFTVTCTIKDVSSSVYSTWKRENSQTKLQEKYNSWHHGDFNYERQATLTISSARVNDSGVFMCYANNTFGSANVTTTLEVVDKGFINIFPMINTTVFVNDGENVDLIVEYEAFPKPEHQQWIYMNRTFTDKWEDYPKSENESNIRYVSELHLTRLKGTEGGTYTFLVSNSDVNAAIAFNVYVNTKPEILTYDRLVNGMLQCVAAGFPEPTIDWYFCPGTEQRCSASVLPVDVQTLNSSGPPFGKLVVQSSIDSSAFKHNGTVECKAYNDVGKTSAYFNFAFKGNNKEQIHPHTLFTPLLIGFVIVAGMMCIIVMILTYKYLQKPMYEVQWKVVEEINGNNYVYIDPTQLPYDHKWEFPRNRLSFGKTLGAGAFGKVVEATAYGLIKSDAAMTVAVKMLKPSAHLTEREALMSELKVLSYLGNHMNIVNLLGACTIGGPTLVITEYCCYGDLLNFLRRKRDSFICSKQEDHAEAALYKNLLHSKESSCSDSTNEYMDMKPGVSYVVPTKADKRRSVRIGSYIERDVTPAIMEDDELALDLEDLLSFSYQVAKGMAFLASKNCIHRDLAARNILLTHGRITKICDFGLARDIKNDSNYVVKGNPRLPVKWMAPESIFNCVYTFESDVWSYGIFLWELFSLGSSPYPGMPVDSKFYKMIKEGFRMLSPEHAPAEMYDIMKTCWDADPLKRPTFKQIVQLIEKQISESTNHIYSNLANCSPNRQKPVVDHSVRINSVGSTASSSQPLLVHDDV
T5 sequence (P45984 whole entry): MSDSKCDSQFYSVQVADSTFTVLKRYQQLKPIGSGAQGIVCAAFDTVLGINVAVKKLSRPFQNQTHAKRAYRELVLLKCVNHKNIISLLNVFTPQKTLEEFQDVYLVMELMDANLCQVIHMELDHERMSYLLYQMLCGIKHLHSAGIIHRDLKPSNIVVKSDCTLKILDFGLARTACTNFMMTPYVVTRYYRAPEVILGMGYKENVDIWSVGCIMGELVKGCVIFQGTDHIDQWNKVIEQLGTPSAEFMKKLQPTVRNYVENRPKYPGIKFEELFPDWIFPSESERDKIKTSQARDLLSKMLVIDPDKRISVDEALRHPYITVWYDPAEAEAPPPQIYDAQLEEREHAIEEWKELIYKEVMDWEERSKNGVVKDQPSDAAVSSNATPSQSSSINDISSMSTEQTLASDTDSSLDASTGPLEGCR
T6 sequence (Q16659 whole entry): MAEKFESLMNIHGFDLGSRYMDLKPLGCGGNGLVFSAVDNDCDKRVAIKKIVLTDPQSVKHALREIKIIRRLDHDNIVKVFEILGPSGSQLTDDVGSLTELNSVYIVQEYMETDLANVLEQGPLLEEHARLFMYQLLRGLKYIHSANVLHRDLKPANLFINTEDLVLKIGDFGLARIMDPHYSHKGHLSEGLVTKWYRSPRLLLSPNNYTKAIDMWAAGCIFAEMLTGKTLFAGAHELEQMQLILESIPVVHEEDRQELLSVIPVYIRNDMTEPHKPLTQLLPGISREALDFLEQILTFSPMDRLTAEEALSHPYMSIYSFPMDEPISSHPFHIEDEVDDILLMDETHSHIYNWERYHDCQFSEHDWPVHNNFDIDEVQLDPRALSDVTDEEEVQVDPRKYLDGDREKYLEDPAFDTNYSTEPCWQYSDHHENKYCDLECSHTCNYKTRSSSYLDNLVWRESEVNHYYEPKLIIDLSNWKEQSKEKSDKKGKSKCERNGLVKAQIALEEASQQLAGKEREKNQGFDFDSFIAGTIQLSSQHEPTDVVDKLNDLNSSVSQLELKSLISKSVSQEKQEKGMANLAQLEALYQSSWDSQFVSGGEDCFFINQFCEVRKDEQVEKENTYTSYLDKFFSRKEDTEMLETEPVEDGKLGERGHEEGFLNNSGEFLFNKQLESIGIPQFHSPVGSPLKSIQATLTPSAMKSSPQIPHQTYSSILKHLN

SMILES | remaining binding at 1 µM [1] | remaining binding at 1 µM [2] | remaining binding at 1 µM [3] | remaining binding at 1 µM [4] | remaining binding at 1 µM [5] | remaining binding at 1 µM [6] | remaining binding at 1 µM [7] | remaining binding at 1 µM [8] | remaining binding at 1 µM [9]
Cc1ccc(C(=O)Nc2ccc(CN3CCN(C)CC3)c(C(F)(F)F)c2)cc1C#Cc1cnc2c(Nc3cnn(C)c3)cccn12 [Example 1, 4-methyl-3-((8-((1-methyl-1H-pyrazol-4-yl)amino)imidazo[1,2-a]pyridin-3-yl)ethynyl)-N-(4-((4-methylpiperazin-1-yl)methyl)-3-(trifluoromethyl)phenyl)benzamide] | 0% | 4% | 53% | 51% | 0% | 100% | 0% | 32% | 85%
Cc1cn(-c2cc(NC(=O)c3ccc(C)c(C#Cc4cnc5c(Nc6cnn(C)c6)cccn45)c3)cc(C(F)(F)F)c2)cn1 [Example 12, 4-methyl-N-(3-(4-methyl-1H-imidazol-1-yl)-5-(trifluoromethyl)phenyl)-3-((8-((1-methyl-1H-pyrazol-4-yl)amino)imidazo[1,2-a]pyridin-3-yl)ethynyl)benzamide] | 2% | 29% | 94% | 66% | 66% | 94% | 25% | 77% | 100%
Cc1ccc(NC(=O)C2(C(=O)Nc3ccc(F)cc3)CC2)cc1C#Cc1cnc2c(Nc3cnn(C(C)C)c3)cccn12 [Example 78] | 100% | 21% | 100% | 69% | 100% | 100% | 93% | 100% | 100%
